The source of these data is publication PMC5859250, “Contribution of transformation products towards the total herbicide toxicity to tropical marine organisms” (Scientific Reports, 2018).

The subject of series [1] is prawn (Penaeus monodon) larvae. Put plainly: Prawn larvae assay, metamorphosis of nauplii into protozoea (24 h static). It is filed as in vivo. To be noted: 24 h; for LOEC, prawn larval metamorphosis / NOEC, prawn larval metamorphosis: vs solvent control, ANOVA p < 0.05, aged solutions as concentration of parent herbicide; for Effect on prawn larval metamorphosis (in words): concentration range tested. The protocol: The giant tiger prawn (Penaeus monodon) can be found throughout the tropical Indo-Pacific region and can be obtained from aquaculture facilities and has a well-described life cycle. The aim of the larval prawn assay was to determine whether the herbicides and transformation products inhibit early naupliar development. Prawn eggs hatch into their first larval stage (nauplii), typically 12–15 h after spawning. During development the nauplii are lecithotrophic, and over the course of the next 36 h, nauplii pass through 6 sub-stages before metamorphosing into protozoae[67],[68].
Freshly hatched nauplii were harvested by light attraction over 30 min, and washed and aerated for 10 min with seawater, and transported to AIMS in Townsville, Queensland. […] The toxicity assays were performed in incubator shakers (set to 30 °C) under very low light and with gentle shaking to prevent individuals adhering to the side of experimental containers.
The larval stock was gently concentrated via reverse-gravity filtration to a higher density before dispensing 8–10 individuals per 20 ml glass scintillation vials. Additional positive control treatments in the form of 4 concentrations of copper II chloride solution (2 to 900 µg l^−1 Cu), were included for test validation. The static assay was terminated after 24 h and 10% seawater formalin was added as a preservative for later microscopy. Metamorphosis was considered successful when nauplii had developed into protozoea.
(§1) The model was constrained by applying a lower limit of 0% inhibition and all curves were tested for normality of the residuals and a replicate test was applied to assess the goodness of fit[36]. The probability that ICX values generated by the logistic curves were statistically different between parent and aged herbicide solutions was tested by applying the F test in Graph Pad Prism v6. ICXs were considered different when p < 0.05. Where inhibition data could not be fitted to logistic curves, one-way analysis of variance (ANOVA) was performed to identify treatments which caused significant (p < 0.05) inhibition comparison with control treatments (NCSS v9, Utah, USA). The larval prawn experimental data was arcsine square root transformed prior to statistical analysis.

The nature of series [2]: Herbicide degradation in outdoor tanks with coastal seawater and sediment (330 d). The class given is physicochemical. From the text: Photosystem II herbicides/transformation product solutions were produced by adding herbicides to seawater within separate 120 l outdoor fibreglass tanks, in the presence of natural coastal sediments (further details can be found in Mercurio 2016)[36]. […] The tanks used were previously described in Mercurio et al.[8], with treatment water being partially shaded (70%) and exposed to a maximum of 700 µmol photons m^−2s^−1 over the course of the experiment. The application of a natural diurnal light regime and coastal sediment were previously shown to increase the rates of PSII herbicide degradation and represent more natural conditions than those used in standard degradation tests[8],[36]. Evaporation was minimised with loose-fitting clear acrylic lids and the water continuously circulated using Turbelle Nanostream pumps. Prior to every sampling period evaporation losses were replenished with equal volumes of MilliQ water. The average temperature was 25.7 °C with a range of 15.6–36.6 °C over the course of the study. Unfiltered coastal seawater and sediments were collected from the intertidal zone adjacent to the Australian Institute of Marine Science (19°16′S, 147°03′E), Cape Cleveland, QLD. The sediments were prepared one week prior to use by sieving (>2 mm removed) and thorough mixing. Each tank contained 5 kg of sediment. Physical and chemical information on the seawater and sediments used the treatments can be found in SOM Table 1.
The 20 tanks included replicates for control seawater (n = 4) and the PSII herbicides diuron (n = 4), atrazine (n = 3), simazine (n = 3), hexazinone (n = 3), and ametryn (n = 3). Herbicide treatments and replicates were randomized among tanks. The herbicides were purchased from Sigma Aldrich (>95% purity) and were introduced at ~1 mg l^−1 to enable direct chemical and toxicological testing of the herbicide transformation product mixtures without additional concentration steps. […] The same concentration was used in the controls. Sample collection, internal standard addition, and analytical techniques (HPLC-MS/MS using an AB/Sciex API5500Q mass spectrometer equipped with an electrospray interface and coupled to a Shimadzu Prominence HPLC system) were as previously reported[7],[36]. […] Individual replicates were analysed using HPLC/TripleTOF mass spectrometry for possible transformation products as described in Mercurio 2016[36]. Briefly, 0.2 µm-filtered samples were directly injected into an ABSciex API5600+ Triple TOF mass spectrometer (ABSciex, Concord, Ontario, Canada) equipped with an electrospray (TurboV) interface coupled to a Shimadzu Nexera HPLC system (Shimadzu Corp., Kyoto, Japan). Separation was achieved using a 4 micron 50 × 2.0 mm Phenomenex Synergi Fusion RP column (Phenomenex, Torrance, CA) run at 45 °C, and a flow rate of 0.4 mL min^−1 with a linear gradient starting at 8% B for 0.5 minutes, ramped to 100% B in 8 minutes then held at 100% for 2.0 minutes followed by equilibration at 8% B for 2.5 minutes (A = 1% methanol in HPLC grade water, B = 95% methanol in HPLC grade water, both containing 0.1% acetic acid). The mass spectrometer was operated in positive ion SWATH mode. Briefly this mode comprises a TOF scan of 50 millisecond duration followed by small segments of the mass range being transmitted through the quadrupole, fragmented in the collision cell and full TOF mass spectra taken of the transformation products. Data from these experiments was examined using the Masterview software (ABSciex).
Potential transformation products identified using TOF mass spectrometry and other potential transformation products identified from literature were then re-examined by HPLC/ triple quadrupole mass spectrometry using multiple reaction monitoring. Product ions used were as identified from QTOF data or from literature references and parameters such as collision energy optimised by repeated injections of samples for compounds detected. […]

Another series concerns Symbiodinium sp. Put plainly: Microalgal PAM fluorometry assay, inhibition of ∆F/Fm′ (24 h, 96-well plate). The class given is cell-based. The conditions noted are these: 24 h; for IC20: read-out: IC20 parent (inhibition of ∆F/Fm′ by 20%); for IC50: read-out: IC50 parent (inhibition of ∆F/Fm′ by 50%); for IC10 parent (inhibition of ∆F/Fm′ by 10%): Symbiodinium sp., pure compound.
Excerpt: (§2) Microalgae play a critical role in the marine food web and have been used in a number of sensitive assays for the assessment of toxicity of both herbicides and their transformation products[13],[16],[60]. High throughput 96 well plate designs allow for increased replication and a wide range of concentrations especially when paired with pulse amplitude modulation (PAM) fluorometry[50],[61]. PAM fluorometry measures chlorophyll fluorescence and can be used to calculate inhibitions of effective quantum yield ∆F/Fm′, which is proportional to reduced photosynthetic efficiency[62] and growth in microalgae[63] and can be plotted against toxicant concentrations to derive concentrations that inhibit ∆F/Fm′ by 10, 20 and 50% (IC10, IC20 and IC50). In the present study the green algae (Dunaliella sp.) and coral symbiont (Symbiodinium sp.) were exposed to herbicides and aged herbicide solutions for 24 h in a 96-well plate format. A Maxi-Imaging-PAM (I-PAM) (Walz, GmbH Germany) was used to measure inhibition of ∆F/Fm′ using settings provided previously[36] and below.
(§3) Symbiodinium cells were isolated from coral by air blasting branches of Acropora tenuis colonies collected (collected under the permit G10-33440.1) at 2–5 m depth in Nelly Bay, Magnetic Island, GBR[36]. Symbiodinium cells were inoculated into sterile IMK growing media, the culture purified, DNA extracted, and Clade C1 identified as published previously[64],[65]. Cultures were maintained at 26 °C, 60 µE PAR, 14:10 light:dark photoperiod inside environmental chambers (Steridium e500). The Dunaliella sp. (CS-353) (Chlorophyceae) was obtained from the CSIRO Collection of Living Microalgae (CCLM). The algae was subcultured and grown in F2 media. For the toxicology assays, an exponentially growing culture was employed[63] and density adjusted by hemocytometry under 10× magnification. Day 7 sub-cultures were used throughout the experiment.
(§4) Herbicide solutions were delivered into each treatment plate using a Perkin Elmer Janus liquid handling system. Each well of the black 96-well plates (Perkin Elmer) received 100 µl herbicide solution as well as 100 µl of algal suspension (added via multi-channel pipette) and the solution was gently mixed. […] Each plate included a 3 µg l^−1 positive diuron control (n = 4) to confirm consistent sensitivities among the replicate algal subcultures. Treatments positions were randomised across the plates in duplicate[50],[61],[66]. Symbiodinium culture plates were incubated over a 12:12 h light:dark cycle at 26 °C and 60–70 µmol photons m^−2 s^−1 and Dunaliella sp. Plates incubated at: 26 °C and 130 µmol photons m^−2 s^−1. Microalgae were exposed for 24 h prior to PAM measurements. Samples were subjected to the 50 µmol photons m^−2 s^−1 actinic light for 1 min prior to measurement in the Maxi-IPAM (Actinic light = 1, ML = 10, ML frequency = 8, gain = 2 and damping = 1).
as §1

The subject of another series is Dunaliella sp. The series is described as above. It is filed as cell-based. To be noted: 24 h; for IC20: read-out: IC20 parent (inhibition of ∆F/Fm′ by 20%); for IC50: read-out: IC50 parent (inhibition of ∆F/Fm′ by 50%); for IC10 parent (inhibition of ∆F/Fm′ by 10%): Dunaliella sp., pure compound.
Excerpt: as §2, §3, §4, §1

Where [3] appears, read: day 330, seawater with sediment, outdoor tanks.

In brackets after ≈: the same amount, converted by molar mass.

On to `[Cl][Cu][Cl]` [Copper reference, copper II chloride, reference compound], for which, in series [1], the “LOEC, prawn larval metamorphosis” value came out at 91 µg/L and the “NOEC, prawn larval metamorphosis” value came out at 11 µg/L.

With `CCNc1nc(NC(C)C)nc(SC)n1` [Ametryn], in series [2] (330 d), the “% degradation” value was determined as 56%. The Parent herbicide concentration in series [2] (setting [3]) stood at 189 µg/L. Moreover, in series [1], the “Effect on prawn larval metamorphosis (in words)” value is “did not affect metamorphosis”; the “LOEC, prawn larval metamorphosis” value is >517 µg/L; the “NOEC, prawn larval metamorphosis” value stood at 517 µg/L. For the same molecule, in the series on Symbiodinium sp., the IC20 was found to be 0.00082 µg/mL (≈ 0.00361 µM), the IC50 was found to be 0.0022 µg/mL (≈ 0.00968 µM) and the “IC10 parent (inhibition of ∆F/Fm′ by 10%)” value was 0.47 (0.43–0.51) µg l^−1. In addition, in the series on Dunaliella sp., the IC20 is 0.00123 µg/mL (≈ 0.00541 µM), the IC50 amounted to 0.0034 µg/mL (≈ 0.015 µM) and the “IC10 parent (inhibition of ∆F/Fm′ by 10%)” value is listed as 0.70 (0.65–0.74) µg l^−1.

In the case of `CCNc1nc(Cl)nc(NCC)n1` [Simazine], in series [2] (setting [3]), the “% degradation” value turned out to be 63% and the Parent herbicide concentration stood at 384 µg/L. Besides, in the series on Symbiodinium sp., the IC20 came out at 0.034 µg/mL (≈ 0.169 µM), the IC50 is 0.084 µg/mL (≈ 0.417 µM) and the “IC10 parent (inhibition of ∆F/Fm′ by 10%)” value is recorded as 21 (19–23) µg l^−1. Further, in the series on Dunaliella sp., the IC20 is 0.017 µg/mL (≈ 0.0843 µM) and the IC50 is 0.087 µg/mL (≈ 0.431 µM).

For the molecule `CN(C)C(=O)Nc1ccc(Cl)c(Cl)c1` [Diuron], in series [2] (setting [3]), the “% degradation” value is 93% and the Parent herbicide concentration came out at 71 µg/L. Besides, in series [1], the “Effect on prawn larval metamorphosis (in words)” value is reported as “did not affect metamorphosis”; the “LOEC, prawn larval metamorphosis” value was >874 µg/L; the “NOEC, prawn larval metamorphosis” value was determined as 874 µg/L. The “LOEC, prawn larval metamorphosis” value in series [1] (listed as diuron) was > 874 µg/L. Besides, in the series with Symbiodinium sp., the IC20 turned out to be 0.00068 µg/mL (≈ 0.00292 µM), the IC50 came to 0.0014 µg/mL (≈ 0.00601 µM) and the “IC10 parent (inhibition of ∆F/Fm′ by 10%)” value was 0.64 (0.57–0.71) µg l^−1. In the series with Dunaliella sp., the IC20 came to 0.00174 µg/mL (≈ 0.00746 µM), the IC50 was found to be 0.0044 µg/mL (≈ 0.0189 µM) and the “IC10 parent (inhibition of ∆F/Fm′ by 10%)” value is given as 1.02 (0.94–1.10) µg l^−1.

On to `CN(C)c1nc(=O)n(C2CCCCC2)c(=O)n1C` [Hexazinone], for which the “% degradation” value in series [2] (330 d) was 58%. In addition, the Parent herbicide concentration in series [2] (setting [3]) came out at 366 µg/L. Further, in series [1], the “LOEC, prawn larval metamorphosis” value was found to be 1026 µg/L and the “NOEC, prawn larval metamorphosis” value amounted to 242 µg/L. In addition, in the series on Symbiodinium sp., the IC20 is 0.012 µg/mL (≈ 0.0476 µM), the IC50 was determined as 0.0457 µg/mL (≈ 0.181 µM) and the “IC10 parent (inhibition of ∆F/Fm′ by 10%)” value was 5.3 (4.5–6.7) µg l^−1. Besides, in the series on Dunaliella sp., the IC20 amounted to 0.01 µg/mL (≈ 0.0396 µM) and the IC50 came out at 0.038 µg/mL (≈ 0.151 µM).

Take `CCNc1nc(Cl)nc(NC(C)C)n1` [Atrazine]: in series [2] (setting [3]), the “% degradation” value is on record as 64% and the Parent herbicide concentration came out at 278 µg/L. Also, in series [1], the “LOEC, prawn larval metamorphosis” value was found to be 899 µg/L and the “NOEC, prawn larval metamorphosis” value came to 197 µg/L. In the series with Symbiodinium sp., the IC20 worked out at 0.014 µg/mL (≈ 0.0649 µM), the IC50 amounted to 0.0345 µg/mL (≈ 0.16 µM) and the “IC10 parent (inhibition of ∆F/Fm′ by 10%)” value is 8.6 (8.0–9.3) µg l^−1. Besides, in the series with Dunaliella sp., the IC20 is 0.018 µg/mL (≈ 0.0835 µM), the IC50 worked out at 0.035 µg/mL (≈ 0.162 µM) and the “IC10 parent (inhibition of ∆F/Fm′ by 10%)” value was 12 (11–14) µg l^−1.
